According to publication PMC9293083 (Chemistry (Weinheim an Der Bergstrasse, Germany), 2021):

What was measured:
A549 (lung carcinoma) [1] = conditions: read-out: IC50 A549; cited from earlier work
pBR322 plasmid DNA = format: binding
HeLa (cervix carcinoma) = conditions: read-out: IC50 HeLa; cited from earlier work
tubulin = format: cell-based, human
A549 (lung carcinoma) [2] = tested on: A549 (lung carcinoma)
A549 cells = format: cell-based, human
[3] = tested on: lung mouse embryonic fibroblasts (LMEFs); format: cell-based; conditions: 10 μM, 22 h

Compound: N.N.[Cl][Pt][Cl] [cisplatin, reference compound]
- IC50 (A549 (lung carcinoma) [1]): 6.45 ± 0.47 µM
- electrophoretic mobility of plasmid forms (pBR322 plasmid DNA): electrophoretic shift
- IC50 (HeLa (cervix carcinoma)): 13.6 ± 0.99 µM

Compound: COC(=O)Nc1nc2ccc(C(=O)c3cccs3)cc2[nH]1 [nocodazole, reference compound]
- tubulin depolymerization / microtubule disassembly (tubulin): notable microtubule disassembly

Compound: CN(C)c1ccc(-c2nc3ccccc3s2)cc1 [Me2N‐pbtH, 2‐(4‐dimethylaminophenyl)benzothiazole]
- cytotoxic effects against A549 cells (A549 (lung carcinoma) [2]): did not show cytotoxic effects
- cellular internalization (intracellular green fluorescence) (A549 cells): successful internalization
- colocalization with Golgi apparatus marker BODIPY TR C5 ceramide (A549 cells): most of the signal colocalized with the Golgi apparatus marker
- time to bright green fluorescence (internalization) (A549 cells): 2 to 5 min
- accumulation in endosomal/lysosomal compartments (LysoTracker) [3]: minor accumulation in the endosomal/lysosomal compartments
- accumulation in mitochondria (MitoTracker) [3]: lack of accumulation in mitochondria
